Assay results published in US20230000894A1, “TREATING MITOCHONDRIAL DNA DEPLETION DISORDERS” (MITORAINBOW THERAPEUTICS, INC., priority 2019, published 2023).

How the values were obtained:
[1] = Systemic exposure of dC and dT after oral dCMP+dTMP vs intravenous dC(P2)dT (Example 1); format: in vivo; settings: for higher oral dose needed to deliver comparable plasma exposure of the corresponding nucleoside compared with intravenous dC(P2)dT / metabolism in vivo (detectability of administered labeled analyte in plasma): in vivo
Protocol: The systemic exposure of two mononucleotides (dCMP and dTMP) and their corresponding mononucleosides (dC and dT) following oral dosing of two mononucleotides (dCMP & dTMP) vs. intravenous dosing of a dinucleotide (dC(P2)dT) was determined. Test articles were prepared as follows:
Unlabeled test articles: dC=Deoxycytidine (nucleoside) dT=Deoxythymidine (nucleoside) dCMP=Deoxycytidine monophosphate (mononucleotide) dTMP=Deoxythymidine monophosphate (mononucleotide) dC(P2)dT or dT(P2)dC=Deoxycytidine-deoxythymidine diphosphate (dinucleotide) Labeled test articles: dC*=^15N3 labeled dC (labeled nucleoside) dT**=^13C10 and ^15N2 labeled dT (labeled nucleoside) The corresponding labeled nucleotides are dC*MP and dT**MP The corresponding labeled dinucleotide is dC*(P2)dT** or dT**(P2)dC*.
The nucleosides (dC and dT) and their corresponding monophosphate nucleotides (dCMP and dTMP) are naturally produced in the body. In order to differentiate naturally occurring vs exogenously administered dC/dT and dCMP/dTMP, a mixture of labeled dC*MP/dT**MP and unlabeled dCMP/dTMP was dosed via oral route, and a mixture of labeled dC*(P2)dT** and unlabeled dC(P2)dT via I.V. route. The labeled test articles served as tracers for the determination of systemic levels of exogenous dC/dT and dCMP/dTMP following dosing.
Plasma samples were then analyzed for the following analytes: dT**, dC*, dT**MP, dC*MP, and dC*(P2)dT**.
To correct for total TA (labeled+unlabeled) administered, the plasma levels of labeled analytes were multiplied by 10 and 5 for the P.O. and I.V. treatment groups, respectively. In addition, the total TA dose administered by P.O route was 1000 mg/kg (900 mg/kg unlabeled+100 mg/kg labeled) and 10 mg/kg (8 mg/kg unlabeled and 2 mg/kg labeled) for P.O. and I.V. treatment groups, respectively. To normalize by unit dose of TA administered the plasma levels of analytes were divided by 1000 and 10 for P.O. and I.V. treatment groups, respectively. The results of the label-corrected and dose-normalized levels of dT and dC for P.O. and I.V. routes of administration are shown in FIG. 2.
The differences in the AUC0-24h for I.V. vs. P.O. for both analytes are statistically different (p<0.01, t-test). The ratios of I.V./P.O. AUC(0-24h)'s are approximately 350 for dT and […].

[2] = Systemic exposure of dC and dT after a single I.V. vs one and two S.C. injections of dC(P2)dT (Example 2); format: in vivo; settings: rats, 10 mg/kg total per dose (2 labeled + 8 unlabeled), initial 24 h post-dose
Protocol: The systemic exposure of dC and dT following a single I.V. injection of dC(P2)dT vs one and two subcutaneous (S.C.) injections of dC(P2)dT was compared, where the second S.C. injection is administered 24 h after the first.
Plasma levels of label-normalized dT and dC levels following a single I.V. and one and two S.C. administrations of labeled and unlabeled dC(P2)dT groups are shown in FIG. 4.

Compound	higher oral dose needed to deliver comparable plasma exposure of the corresponding nucleoside compared with intravenous dC(P2)dT [1]	metabolism in vivo (detectability of administered labeled analyte in plasma) [1]	further results
Nc1ccn([C@H]2C[C@H](O)[C@@H](COP(=O)(O)O)O2)c(=O)n1 [dCMP, Deoxycytidine monophosphate]	approximately 110 fold		
Nc1ccn([C@H]2C[C@H](O)[C@@H](COP(=O)(O)O)O2)c(=O)n1 [dC*MP]		rapid metabolism	
Deoxycytidine-deoxythymidine diphosphate [dC(P2)dT]			ratio of plasma AUC0-24h I.V. vs P.O. for dC ([1]; label-corrected, dose-normalized total dC in plasma, I.V. dC(P2)dT 10 mg/kg total vs P.O. dCMP+dTMP 1000 mg/kg total, p<0.01, t-test): ~110 fold; ratio of plasma AUC0-24h I.V. vs P.O. for dT ([1]; label-corrected, dose-normalized total dT in plasma, I.V. dC(P2)dT 10 mg/kg total vs P.O. dCMP+dTMP 1000 mg/kg total, p<0.01, t-test): approximately 350 fold; mean AUC0-24h of dT and dC in plasma, I.V. vs one and two S.C. administrations [2]: not statistically different

The next lines start with results.

higher oral dose needed to deliver comparable plasma exposure of the corresponding nucleoside compared with intravenous dC(P2)dT [1]	metabolism in vivo (detectability of administered labeled analyte in plasma) [1]	Compound	further results
approximately 350 fold		Cc1cn([C@H]2C[C@H](O)[C@@H](COP(=O)(O)O)O2)c(=O)[nH]c1=O [dTMP, Deoxythymidine monophosphate]	
	rapid metabolism	Cc1cn([C@H]2C[C@H](O)[C@@H](COP(=O)(O)O)O2)c(=O)[nH]c1=O [dT**MP]	
